Target: T1, DCAF1 WD40 domain (residues 1077-1390) (Homo sapiens, UniProt Q9Y4B6)
T1 construct: DCAF1 WD40 domain (residues 1077-1390)
Assay: DCAF1 binding assay by SPR (Biacore 8K+), DCAF1-3 KD
Conditions: 25 °C, read-out: DCAF1-3 SPR (KD)

T1 sequence (Q9Y4B6 1077-1390): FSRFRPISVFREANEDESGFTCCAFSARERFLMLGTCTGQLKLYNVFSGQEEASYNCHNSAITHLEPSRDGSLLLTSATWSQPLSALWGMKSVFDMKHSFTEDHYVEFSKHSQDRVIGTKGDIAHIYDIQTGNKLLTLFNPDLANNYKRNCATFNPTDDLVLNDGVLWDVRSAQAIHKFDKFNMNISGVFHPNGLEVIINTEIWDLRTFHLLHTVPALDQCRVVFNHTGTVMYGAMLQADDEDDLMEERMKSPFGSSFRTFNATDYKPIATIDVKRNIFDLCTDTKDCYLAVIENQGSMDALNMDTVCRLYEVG

SMILES	Kd [µM]
NC(=O)C[C@H](NC(=O)c1c[nH]nc1-c1ccc[nH]c1=O)c1cccc(Cl)c1 [I-156]	> 200
Fc1cccc(N2CC(Nc3cc(N4CCOCC4)ncn3)C2)c1 [I-218]	> 200
NC(=O)C[C@H](NC(=O)c1cn[nH]c1-c1cccc(O)c1)c1cccc(Cl)c1 [I-332]	10 to 100
NC(=O)C[C@H](NC(=O)c1cnn(C(=O)c2ccncn2)c1-c1ccccc1F)c1cccc(Cl)c1 [I-174]	> 200
C=CC(=O)N1CCC(c2n[nH]cc2C(=O)N[C@@H](CC(N)=O)c2cccc(Cl)c2)C1 (some centres unmarked) [I-453]	> 200
Cn1nccc1-c1[nH]ncc1C(=O)N[C@@H](CC(N)=O)c1cccc(Cl)c1 [I-157]	10 to 100
Fc1cccc(N2CCC[C@@H](Nc3cc([C@@H]4CCCCN4)ccn3)C2)c1 [I-124]	> 200
Cc1ccc(-c2[nH]ncc2C(=O)N[C@@H](CC(N)=O)c2cccc(Cl)c2)c(F)c1 [I-506]	< 10
C=CC(=O)N1CCC(c2n[nH]cc2C(=O)N[C@@H](CC(N)=O)c2cccc(Cl)c2)=N1 [I-471]	> 200
CCN(c1cc(N2CCOCC2)ncn1)[C@@H]1CCCN(c2cccc(F)c2)C1 [I-386]	> 200
Fc1cccc(N2CCC[C@@H](N(Cc3ccccc3)c3nccc(N4CCOCC4)n3)C2)c1 [I-34]	> 200
Fc1cccc(N2CCC[C@@H](Nc3cc([C@@H]4CCCCO4)ccn3)C2)c1 [I-94]	> 200
N#Cc1ncccc1N1CCC[C@@H](Nc2cc(N3CCOCC3)ccn2)C1 [I-424]	> 200
COCCN1CCC(c2ccnc(N[C@@H]3CCCN(c4cccc(F)c4)C3)c2)CC1 [I-99]	10 to 100
CC(C)n1ncc(C(=O)N[C@@H](CC(N)=O)c2cccc(Cl)c2)c1-c1ccccc1F [I-134]	100 to 200
NC(=O)C[C@H](NC(=O)c1cn[nH]c1-c1ncccc1F)c1cccc(Cl)c1 [I-357]	> 200
Cc1ccc(F)c(-c2[nH]ncc2C(=O)N[C@@H](CC(N)=O)c2cccc(Cl)c2)c1 [I-505]	< 10
C[S+]([O-])CN(c1cc(N2CCCOC2)ccn1)[C@H]1CCCN(c2cccc(F)c2)C1 (some centres unmarked) [I-539]	10 to 100
C=CC(=O)NC1CCC(c2[nH]ncc2C(=O)N[C@H](CC(N)=O)c2cccc(Cl)c2)CC1 (some centres unmarked) [I-537]	10 to 100
Cc1sc2c(c1C)C(c1ccc(Cl)cc1)=N[C@@H](CC(=O)NCCOCCOCCOCCOCCn1ncc(C(=O)N[C@@H](CC(N)=O)c3cccc(Cl)c3)c1-c1ccccc1F)c1nnc(C)n1-2 [I-491]	> 200

Other lines, results leading:

Kd [µM]	SMILES
< 10	Nc1ccc(F)cc1N1CCC[C@@H]2[C@H]1CCN2c1cc(N2CCCCC2)ccn1 [I-811]
< 10	Cc1c(F)ccc(F)c1-c1c(C(=O)N[C@@H](CC(N)=O)c2cccc(Cl)c2)cn(C)c1C(=O)c1ccc(OCCOCCOCCN)cc1 [I-1034]
< 10	NC(=O)C[C@H](NC(=O)c1cn[nH]c1-c1c(F)cccc1C(F)(F)F)c1cccc(Cl)c1 [I-630]
< 10	COc1ccc(C(=O)c2[nH]cc(C(=O)N[C@@H](CC(N)=O)c3cccc(Cl)c3)c2-c2c(F)ccc(F)c2C)cc1 [I-810]
> 200	CSc1ccc(N2CCC[C@@H](Nc3cc(N4CCOCC4)ccn3)C2)c(Cl)c1 [I-857]
< 10	OC1CCCN(c2ccnc(N[C@@H]3CCCN(c4cccc(F)c4)C3)c2)C1 (some centres unmarked) [I-701]
10 to 100	OCc1cnc2ccc(N3CCC[C@@H](Nc4cc(N5CCOCC5)ccn4)C3)nn12 [I-696]
< 10	NCc1ccc(N2CCC[C@@H](Nc3cc(N4CCOCC4)ccn3)C2)cc1 [I-868]
10 to 100	Cc1sc2c(c1C)C(c1ccc(Cl)cc1)=N[C@@H](CC(=O)NCCOCCOCCOCCOCCOCCOCCC1CCN(c3ccnc(N4CC[C@@H]5[C@H]4CCCN5c4cccc(F)c4)c3)CC1)c1nnc(C)n1-2 [I-895]
10 to 100	Fc1cccc(N2CCC[C@@H]3[C@H]2CCN3c2cc(N3CCCCCC3)ccn2)c1 [I-635]
< 10	CN(CCN)C(=O)C[C@H](NC(=O)c1cn[nH]c1-c1ccccc1F)c1cccc(Cl)c1 [I-807]
< 10	CO/N=C(/c1ccccc1)c1[nH]cc(C(=O)N[C@@H](CC(N)=O)c2cccc(Cl)c2)c1-c1c(F)ccc(F)c1C [I-758]

From patent US20260373266A1, “PROTEIN DEGRADERS AND USES THEREOF” (KYMERA THERAPEUTICS, INC., priority 2022, published 2026)
